Data reported in patent publication US20230339991A1, “HYPOXIA-ACTIVATED DNA ALKYLATING AGENT AND MEDICAL USE THEREOF” (ASCENTAWITS PHARMACEUTICALS, LTD., priority 2020, published 2023).

Columns and labels:
[1] = tested on: human liver cancer HepG2 subcutaneous xenograft; test: Human liver cancer HepG2 subcutaneous xenograft model; assay type: in vivo, BALB/c nude mice; conditions: for relative tumor inhibition rate TGI (%): QW×3, tail vein, Day 45
Source text: BALB/c nude mice were subcutaneously inoculated with human liver cancer HepG2 cells to establish human liver cancer subcutaneous transplantation tumor model.

[2] = tested on: HuPrime pancreatic cancer PA3546 subcutaneous xenograft PDX tumor; test: PA3546 human pancreatic cancer subcutaneous PDX model; conditions: for relative tumor inhibition rate TGI (%): Day 25
Description: BALB/c nude mice were subcutaneously inoculated with HuPrime® model PA3546 tumor blocks to establish human pancreatic cancer subcutaneous transplantation tumor model. […] Efficacy was evaluated according to the relative tumor inhibition rate TGI (%), and safety was evaluated according to the change in body weight and the death of animals.

NCI-H1944 = test: Cytotoxicity, NSCLC cell line NCI-H1944; assay type: cell-based; conditions: Homo sapiens
Description: (§1) Compounds were exposed at various concentrations for 72 hours, followed by a wash step. Fresh medium was added for growth. The cell was stained to determine the cell survival rate and compared with controls treated with medium only.
(§2) In particular, exponentially grown cells were inoculated in 96-well plates at a density of 2×10^3 cells/100 μl/well and incubated for 24 hours at 37° C. and under the conditions of 5% CO2, 95% air and 100% relative humidity before addition of 99 μl of culture solution. The compounds were dissolved in 100% DMSO at 200 times of the desired final test concentration. When the drug was added, an aliquot of 1 μl of the compound at the specified concentration was added to microwells already containing 199 μl of medium to obtain the reported final drug concentration. After adding the drug, plates were incubated for an additional 72 hours at 37° C., 5% CO2, 95% air and 100% relative humidity. The cell assay plate was left to balance for 30 minutes at room temperature and 100 μL of medium was removed from per well. 100 μl CTG reagent (CelltiterGlo kit) was added into each well. The plate was placed on a fast shaker and shaked for 2 min, and kept in dark at room temperature for 30 min. The chemiluminescence signal value was read by Envision instrument. […]

NCI-H2228 = test: Cytotoxicity, NSCLC cell line NCI-H2228; assay type: cell-based; conditions: Homo sapiens
Description: as §1, §2

NCI-H1563 = test: Cytotoxicity, NSCLC cell line NCI-H1563; assay type: cell-based; conditions: Homo sapiens
Description: as §1, §2

CAL12T = test: Cytotoxicity, NSCLC cell line CAL12T; assay type: cell-based; conditions: Homo sapiens, CAL-12T
Description: as §1, §2

NCI-H23 = test: Cytotoxicity, NSCLC cell line NCI-H23; assay type: cell-based; conditions: Homo sapiens
Description: as §1, §2

NCI-H2110 = test: Cytotoxicity, NSCLC cell line NCI-H2110; assay type: cell-based; conditions: Homo sapiens
Description: as §1, §2

HPAF-II = test: Cytotoxicity, pancreatic cancer PA cells HPAF-II; assay type: cell-based; conditions: Homo sapiens
Description: as §1, §2

KP-2 = test: Cytotoxicity, pancreatic cancer PA cells KP-2; assay type: cell-based; conditions: Homo sapiens
Description: as §1, §2

CFPAC1 = test: Cytotoxicity, pancreatic cancer PA cells CFPAC1; assay type: cell-based; conditions: Homo sapiens, CFPAC-1
Description: as §1, §2

Capan-1 = test: Cytotoxicity, pancreatic cancer PA cells Capan-1; assay type: cell-based; conditions: Homo sapiens
Description: as §1, §2

MIA PaCa-2 = test: Cytotoxicity, pancreatic cancer PA cells MIA PaCa-2; assay type: cell-based; conditions: Homo sapiens
Description: as §1, §2

Panc 10.05 = test: Cytotoxicity, pancreatic cancer PA cells Panc 10.05; assay type: cell-based; conditions: Homo sapiens, Panc1005
Description: as §1, §2

PANC-1 = test: Cytotoxicity, pancreatic cancer PA cells PANC-1; assay type: cell-based; conditions: Homo sapiens
Description: as §1, §2

KP-4 = test: Cytotoxicity, pancreatic cancer PA cells KP-4; assay type: cell-based; conditions: Homo sapiens
Description: as §1, §2

[3] = tested on: HuPrime model GA6201 human gastric cancer subcutaneous transplantation PDX tumor; test: GA6201 human gastric cancer subcutaneous PDX model; assay type: in vivo, BALB/c nude mice
Description: Then the dose was changed to 10 mg/kg by intraperitoneal injection administration daily for 4 days (QD×4, Day14-Day17). The dose and mode of administration were then changed to 20 mg/kg via tail vein injection for one day (QD×1, Day18). After drug withdrawal for 10 days, the dose was changed again, and 50 mg/kg was administered via tail vein injection once a week for two weeks QW×2 (Day28, Day35).
The tumor volumes of mice from different groups were measured at different days and the average values were obtained.

ICR mice = test: Maximal tolerance dose (MTD) test, compound B; assay type: in vivo; conditions: 40 mg/kg group; i.v. QD×5
Description: 18 ICR mice, 9 females/9 males, were randomly divided into compound B 10 mg/kg group, 20 mg/kg group and 40 mg/kg group according to gender and body weight, with 3 females/3 males in each group. […] It was administered once a day for 5 days, and recovered for 2 weeks after the last administration. The animals were closely observed for 2 h after administration on the administration day and once a day in the morning and once in the afternoon on the non-administration day. Body weight and dietary intake were measured twice a week during the test period. Dead animals and all surviving animals after 14 days from the last administration were subjected to autopsy. The autopsy was performed on the pathological organs, and histopathological examination of the pathological organs was performed.

SMILES: O=[N+]([O-])c1ccc([C@@H](OP(=O)(N2CC2)N2CC2)C(F)(F)F)c2ccccc12 (single isomer, unassigned) [Compound C]
- cure rate ([1]; 20 mg/kg (Group 5)): 20%
- relative tumor inhibition rate TGI (%) ([1]; 20 mg/kg): 33.10%
- cure rate ([1]; 40 mg/kg (Group 6)): 20%
- relative tumor inhibition rate TGI (%) ([1]; 40 mg/kg): 75.59%
- body weight loss / tolerability ([2]; 10 mg/kg (Group 3)): no significant body weight loss and were well tolerated
- relative tumor inhibition rate TGI (%) ([2]; 10 mg/kg tail vein QW×3): 32.35%
- body weight loss / death ([2]; 20 mg/kg (Group 4)): significant weight loss and even death of individual or part of mice
- relative tumor inhibition rate TGI (%) ([2]; 20 mg/kg tail vein QW×3): 36.79%
- body weight loss / death ([2]; 40 mg/kg (Group 5)): significant weight loss and even death of individual or part of mice
- relative tumor inhibition rate TGI (%) ([2]; 40 mg/kg tail vein QW×3): 35.93%

SMILES: O=[N+]([O-])c1ccc(C(OP(=O)(N2CC2)N2CC2)C(F)(F)F)c2ccccc12 (racemic) [Compound A]
- IC50 (NCI-H1944): 0.538 µM
- IC50 (NCI-H2228): 0.264 µM
- IC50 (NCI-H1563): 4.45 µM
- IC50 (CAL12T): 30.5 µM
- IC50 (NCI-H23): 6.41 µM
- IC50 (NCI-H2110): 0.382 µM
- IC50 (HPAF-II): 26.1 µM
- IC50 (KP-2): 29.7 µM
- IC50 (CFPAC1): 2.86 µM
- IC50 (Capan-1): 5.97 µM
- IC50 (MIA PaCa-2): 6.9 µM
- IC50 (Panc 10.05): 27.7 µM
- IC50 (PANC-1): 29.3 µM
- IC50 (KP-4): 6.1 µM
- tumor volume ([3]; Group 06, 5-50 mg/kg regimen, day 3): 121.79 mm^3
- tumor volume ([3]; Group 06, 5-50 mg/kg regimen, day 10): 153.46 mm^3
- tumor volume ([3]; Group 06, 5-50 mg/kg regimen, day 14): 191.17 mm^3
- tumor volume ([3]; Group 06, 5-50 mg/kg regimen, day 28): 280.86 mm^3
- tumor volume ([3]; Group 06, 5-50 mg/kg regimen, day 42): 300.46 mm^3
- tumor volume ([3]; Group 06, 5 then 10 mg/kg i.p., 20 and 50 mg/kg i.v. (Table 10), day 0): 94.24 mm^3

SMILES: O=[N+]([O-])c1ccc([C@H](OP(=O)(N2CC2)N2CC2)C(F)(F)F)c2ccccc12 [Compound B]
- animal deaths (ICR mice): Three of the six
